Data taken from patent US12677825B2, “Composition for protecting islet transplantation” (LG CHEM, LTD., priority 2020, dated 2026).

Assays:
[1] = tested on: RINm5F cells; assay: Serum-deprived culture of RINm5F cells (viability, ROS); format: cell-based, rat; settings: dose-dependent 0.1 μM to 20 μM
Description: (§1) Islets were isolated from heterozygous human islet amyloid polypeptide transgenic (hIAPP^+/−)FVB/N mice (Jackson Laboratory, Bar Harbor, ME, USA), […] mice (Orientbio, Sungnam, Korea), and cynomolgus monkeys (Macaca fascicularis; Orientbio, Sungnam, Korea). For additional in vitro studies, rat insulinoma cells (RINm5F cells) were treated with or without Compound 1 during culture under tert-butyl hydroperoxide (tBHP) exposure or serum deprivation condition. RINm5F cells were suspended in DMEM medium (Gibco, Grand Island, NY, USA) containing 100 IU/mL penicillin and 100 μg/mL streptomycin, and cultured at 37° C. in a fully humidified 5% CO2 atmosphere. All experimental protocols in this study were approved by the Institutional Animal Care and Use Committee (IACUC) of Samsung Biomedical Research Institute.

[2] = tested on: islets from hIAPP+/− FVB/N mice; assay: ATP assay of islets isolated with or without Compound 1; format: cell-based, mouse; settings: 20 μM Compound 1 during islet isolation, vs non-treated group; FIG. 1B
Description: (§2) Mouse islets were isolated from 10- to 12-week-old hIAPP^+/− and C57BL/6 mice as described previously. Briefly, 0.8 mg/mL of collagenase P (Roche, Indianapolis, IN, USA) in Hank's buffered saline solution (HBSS, Sigma-Aldrich, St. Louis, MO, USA) with or without 20 μM Compound 1 were infused into the common bile duct for mouse pancreas digestion. Islets were purified from the digested pancreas using a Ficoll (Biochrom, Berlin, Germany) gradient and washed several times with 1 xHBSS. Isolated islets were cultured while free-floating in 10 mL of RPMI 1640 (Gibco, Grand Island, NY, USA). The medium was supplemented with 10% heat-inactivated FBS (fetal bovine serum) at 37° C. and 5% CO2 incubation prior to the ex vivo and in vivo studies.
ATP content of islets was assayed by a luminometric method. The samples were mixed with 200 μL of a commercially available lyophilized ATP monitoring reagent containing firefly luciferase and luciferin (ATP Bioluminescence Assay KIT CLS II, Roche Diagnostics) at first reconstituted in an imidazole buffer (100 mM, pH 7.75). The emitted light was measured in a luminometer (LKB 1250 luminometer). The adenine nucleotide content in samples was determined after correction of the control (no islet or cell) and calculated by reference to ATP standards treated in the same manner as the samples.

[3] = tested on: islets from hIAPP+/− FVB/N mice; assay: Glucose-stimulated insulin secretion (GSIS) assay after islet isolation; format: cell-based, mouse; settings: 20 μM Compound 1 during islet isolation, vs non-treated group; FIG. 1E
Description: as §2
After hand-picking and washing with PBS, islets were seeded on 12-mm diameter insert wells (Merck Millipore, Billerica, MA, USA) with 10 islets per well, and preincubated with 60 mg/dL glucose in Kreb's-Ringer buffer (KRB: 129 mM NaCl, 4.8 mM KCl, 2.5 mM CaCl2, 1.2 mM KH2PO4, 5 mM NaHCO3, 10 mM HEPES, and 0.2% BSA) for […] at 37° C. After washing, islets were incubated with 300 mg/dL glucose-KRB for 1 hour, followed by additional incubation with 60 mg/dL glucose-KRB for 1 hour. Insulin release into the supernatant by the mouse islets was measured by ELISA (ALPCO, Salem, NH, USA) and a multiplex kit (Merck Millipore), respectively.

[4] = tested on: RINm5F cells; assay: tert-butyl hydroperoxide (tBHP) exposure of RINm5F cells; format: cell-based, rat; settings: Compound 1 supplementation
Description: as §1

[5] = tested on: STZ-induced diabetic hIAPP+/− FVB/N mice; assay: Marginal mass renal subcapsular islet transplantation, islets isolated with or without Compound 1; format: in vivo, mouse
Description: as §2
A marginal mass renal subcapsular islet transplantation model was used to assess the in vivo islet function of hIAPP^+/− mice. To induce diabetes, 180 mg/kg of streptozotocin (STZ, Sigma-Aldrich) was administered to 8- to 10-week-old FVB/N mice. Mice were considered to have diabetes when two consecutive blood glucose level readings were higher than 300 mg/dL. Equal amounts (400 IEQ of islets per recipient) of islets isolated from hIAPP^+/− mice were allocated to the following two groups: culture medium supplemented with 0.625% BSA (BSA group) and 0.625% BSA plus Compound 1 (BSA+Compound 1 group) to evaluate the combined effect of Compound 1 on islet mass and function during ex vivo culture. After culture for 72 hours, islets were transplanted into the renal subscapular space of diabetic hIAPP^+/− mice. The IE number was calculated using the Ricordi algorithm by classifying islets according to their diameter. After islet transplantation, non-fasting blood glucose levels were measured three times a week for the first 2 weeks and twice a week for the last 2 weeks.
At 4 weeks after transplantation, the transplantation site on the kidney of mouse were removed and embedded in paraffin. Immunohistochemical staining is briefly explained in the following. After deparaffinization, 4-μm tissue sections were stained with the polyclonal guinea pig anti-insulin antibody (1:1000, A0546, DAKO, Denmark), glucacon (1:500, ab92517, abcam, United Kingdom) and amyloid (1:2500, #44-344, Invitrogen). Stained slides were observed using an Olympus BX40 light microscope (Olympus, Japan) with […] numeric aperture and ×40/0.75 numeric aperture objectives. Photographic images were collected with a digital camera (Olympus DP50) and analyzed using the Image-Pro Plus 5.1 software.
For quantification of the DAB-labeled β-cells, all slides were imaged at 10× on a Vectra 3.0 automated quantitative pathology imaging system and analyzed using inForm software (all from Perkin-Elmer, Waltham, MA, USA). The transplanted renal tissue sections were scanned for image acquisition and then to set the transplanted tissue segmentation, a number of representative regions of transplanted islet cells and regions to be excluded from the analysis such as renal tissues were examined by learn-by-example interface. For the β-cell segmentation, a spectral library was used to identify the hematoxylin-stained nuclei and the DAB-stained cytoplasm (β-cells) within the transplanted tissue. With these training sets, the algorithm for identifying only the DAB-stained cells in the transplanted tissue was verified. All the captured 10× images were analyzed, and the DAB-stained transplanted β-cells were counted.

[6] = tested on: wild type C57BL/6 mouse islets; assay: Effects of Compound 1 during isolation on wild type mouse islets (viability, function, cytokine expression); format: cell-based; settings: Compound 1 during islet isolation; FIG. 2
Description: as §2

SMILES: O=S1(=O)CCN(Cc2cc(NC3CCOCC3)c3[nH]c(-c4ccccc4)cc3c2)CC1 [Compound 1]
- relative cell viability ([1]; serum deprivation, FIG. 4C): significantly increased
- serum deprivation-induced ROS ([1]; serum-deprived culture, FIG. 4E): decreased
- levels of ATP [2]: significantly elevated
- stimulation index in GSIS assay [3]: comparable values between two groups
- cellular toxicity (LDH release) ([4]; FIG. 4A): markedly reduced
- ROS contents ([4]; FIG. 4B): markedly reduced
- diabetes reversal rate ([5]; islets isolated with Compound 1, vs control group, FIG. 3C): better
- proportion of insulin positive area in the grafted tissue ([5]; islets isolated with Compound 1, vs control group, FIG. 3F): greater
- glucose levels during intraperitoneal glucose tolerance test (IPGTT) ([5]; islets isolated with Compound 1, vs control group, FIGS. 3D, 3E): better
- post-transplant glucose levels ([5]; islets isolated with Compound 1, vs non-treated group, FIG. 3B): markedly lower
- glycemia after removal of the grafted kidney ([5]; islets isolated with Compound 1, FIG. 3B): regain of hyperglycemia
- reproduction of isolation results (viability, function, pro-inflammatory cytokine expression) in wild type islets [6]: reproduced
